Common to all, as to assay type: in vivo, rice
In data set [1] the test system is RT IMI hybrids (LF2-RTC2/LM1-RTC1, LF1-RTC2/LM1-RTC1, LF3-RTC2\LM4-RTC1). The data set is described as follows: 16GH-T7 greenhouse Imazamox trial, injury in RT IMI hybrids. To be noted: Imazamox 0.5×, 1×, 2× or 4× at about preflood stage, alone or 2 weeks after 1× Imazethapyr, any treatment. The source says: (§1) FIG. 3A to FIG. 3I illustrate the results of Example 1: FIG. 3A control; FIG. 3B 0.5× Imazamox; FIG. 3C 1× Imazamox; FIG. 3D 2× Imazamox; FIG. 3E 4× Imazamox; FIG. 3F 1× Imazethapyr+0.5× Imazamox; FIG. 3G 1× Imazethapyr+1× Imazamox; FIG. 3H 1× Imazethapyr+2× Imazamox; FIG. 3I 1× Imazethapyr+4× Imazamox; Pots L to R: LF2-RTC2/LM1-RTC1, LF1-RTC2/LM1-RTC1, LF3-RTC2\LM4-RTC1, mutated line P1003A205V, mutated line R0146G654E, sensitive control commercial variety Cypress, commercial hybrid CLXL745.
(§2) Trial consisted of 2 treatment regimens with Imazamox applications at approximately the preflood stage with rates of 0.5×, 1×, 2×, or 4×, either alone or 2 weeks following application of 1× Imazethapyr.
(§3) FIG. 4 Representative Pots 4 Weeks Post Application of Imazamox.

In data set [2] the test system is single trait mutant lines (P1003A205V, R0146G654E). The data set is described as follows: 16GH-T7 greenhouse Imazamox trial, injury in single trait mutant lines. To be noted: Imazamox 0.5× to 4× at about preflood stage, alone or 2 weeks after 1× Imazethapyr.
Description: as §1, §2, §3

The subject of data set [3] is G654E/A205V hybrids. The data set is described as follows: 16-T7 log sprayer trial, Imazethapyr, G654E/A205V hybrids. To be noted: single application, half-step log sprayer, rates 16× to 1/128×; either hybrid.
Data set [4] deals with heterozygous A205V hybrids. To be noted: 2 leaf and preflood application. The text has this: Trial: 2 leaf and preflood application of Imazethapyr or Kifix™ (imazapic/imazapir) herbicide on materials converted with RiceTec IMI traits and commercial IMI control.
The subject of data set [5] is G654E (RTC2) homozygous line. The data set is described as follows: 16-T7 log sprayer trial, Imazethapyr, homozygous G654E line. To be noted: single application, half-step log sprayer, rates 16× to 1/128×.
For data set [6], the system named is A205V-G654E hybrids. The data set is described as follows: 15SA-T9 IMI conversion efficacy trial. To be noted: 2 applications (2 leaf and preflood). The protocol:
2 leaf and preflood application of IMI herbicide on materials converted with RiceTec IMI traits and controls. All males included RTC1 (A205V) in their genome. Females with RTC2 (G654E) were not included due to limited seed numbers. Females were tested separately in 15GH-T8 using potted plant replications.

Data set [7] concerns homozygous A205V (RTC1) mutant line (P1003A205V). The data set is described as follows: 16-T7 log sprayer trial, Imazethapyr, homozygous A205V line. To be noted: single application, all tested rates 8× (48 oz/acre) and lower.

Structures are written as SMILES.

Regarding `COCc1cnc(C2=NC(C)(C(C)C)C(=O)N2)c(C(=O)O)c1` (stereo not shown) [Imazamox, imazamox], the injury entry in data set [1] is recorded as “No injury”; in data set [2], “injury was observed”.

For the molecule `CCc1cnc(C2=NC(C)(C(C)C)C(=O)N2)c(C(=O)O)c1` (stereo not shown) [Imazethapyr, imazethapyr], the results for the “% of injury 3 weeks post 3-4 leaf application” value in data set [3], in data set [5] and in data set [7] were “no observed injury”, “lower than expected” and “below 10%”, respectively. In data set [4], the “tolerance as compared to the A205V-G654E hybrids” value was “reduced tolerance”. In data set [6], the injury rates entry was “very low injury rates”.

(Values after patent publication US11877553B2, “Effects of a plurality of mutations to improve herbicide resistance/tolerance in rice” (priority 2017, dated 2024).)
